For assay [1], the target named is Kelch domain of human KEAP1 (321-624 aa) (Homo sapiens (Human), UniProt Q14145). As to the kind of experiment: KEAP1 KELCH ThermoFluor binding assay.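 Also: Ligand-induced melting temperature shift of E. coli-expressed KEAP1 Kelch protein, Kd estimated from concentration-response curves of ΔTm.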 As to conditions: KEAP Kelch […], 1,8-ANS, pH 7.0, average of results obtained, read-out: Tf Kd.
For assay [2], the system named is Glo-Response ARE-luc2P HEK293 cell line. As to the kind of experiment: ARE luciferase reporter cell-based assay.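 Also: luciferase signal tracks Nrf2 activation of the ARE once compounds disrupt KEAP1-Nrf2 binding, read with One-Glo reagent, DMSO serving as low control.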 As to conditions: Homo sapiens, HEK293, 24 h, average of results obtained.

Chain of Kelch domain of human KEAP1 (321-624 aa) (Q14145 321-624): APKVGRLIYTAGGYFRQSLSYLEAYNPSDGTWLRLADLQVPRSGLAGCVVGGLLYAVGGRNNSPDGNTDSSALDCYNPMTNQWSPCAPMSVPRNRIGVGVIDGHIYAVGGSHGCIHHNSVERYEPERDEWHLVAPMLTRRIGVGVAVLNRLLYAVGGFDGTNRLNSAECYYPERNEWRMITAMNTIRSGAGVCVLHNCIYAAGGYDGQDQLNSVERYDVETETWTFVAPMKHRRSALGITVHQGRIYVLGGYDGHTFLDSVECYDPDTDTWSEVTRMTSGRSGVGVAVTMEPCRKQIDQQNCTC

Turning to `Cc1ccc([C@@H](c2ccn3c(C(F)(F)F)nnc3c2C)C(C)(C)C(=O)O)cc1CN1C[C@H]2CCCCN2c2ncc(C#N)cc2S1(=O)=O` (single isomer, unassigned) [Example 422, (*S)-3-(3-(((*R)-3-cyano-5,5-dioxido-7,7a,8,9,10,11-hexahydro-6H-dipyrido[2,1-d:2′,3′-f][1,2,5]thiadiazepin-6-yl)methyl)-4-methylphenyl)-2,2-dimethyl-3-(8-methyl-3-(trifluoromethyl)-[1,2,4]triazolo[4,3-a]pyridin-7-yl)propanoic Acid], the Kd in assay [1] is under 1 nM. For the same compound, in assay [2], the EC50 amounted to 1.3 nM.
For `CC[C@@H]1CN(Cc2cc(C(CC(=O)O)c3ccn4c(C)nnc4c3)ccc2C)S(=O)(=O)c2cccnc2O1` (mixture of isomers) [Example 162, (R/S)-3-(3-(((R)-4-Ethyl-1,1-dioxido-3,4-dihydro-2H-pyrido[2,3-b][1,4,5]oxathiazepin-2-yl)methyl)-4-methylphenyl)-3-(3-methyl-[1,2,4]triazolo[4,3-a]pyridin-7-yl)propanoic Acid] the same measures were under 1 nM and 2440 nM.
With `CCn1nnc2c(C)c([C@H](c3cnc(C)c(CN4CC5(CCOCC5)Oc5ncc(C)cc5S4(=O)=O)c3)C(C)(C)C(=O)O)ccc21` (single isomer, unassigned) [Example 63, (*R)-3-(1-Ethyl-4-methyl-1H-benzo[d][1,2,3]triazol-5-yl)-2,2-dimethyl-3-(6-methyl-5-((8′-methyl-1′,1′-dioxido-2,3,5,6-tetrahydrospiro[pyran-4,4′-pyrido[2,3-b][1,4,5]oxathiazepin]-2′(3′H)-yl)methyl)pyridin-3-yl)propanoic Acid], the Kd in assay [1] was 14500 nM. Moreover, it took 3280 nM to reach a half-maximal effect in assay [2] (EC50).
Take `Cc1ccc(C(CC(=O)O)c2ccn3c(C(F)(F)F)nnc3c2C)cc1CN1C[C@H]2CN(C)CCN2c2ncccc2S1(=O)=O` (mixture of isomers) [Example 180, (R/S)-3-(4-Methyl-3-(((*R)-9-methyl-5,5-dioxido-7,7a,8,9,10,11-hexahydro-6H-pyrazino[2,1-d]pyrido[2,3-f][1,2,5]thiadiazepin-6-yl)methyl)phenyl)-3-(8-methyl-3-(trifluoromethyl)-[1,2,4]triazolo[4,3-a]pyridin-7-yl)propanoic Acid]: the Kd in assay [1] amounted to 190 nM. This compound had an EC50 in assay [2] of 2880 nM.
With `Cc1ccc(C(CC(=O)O)c2ccc3c(nnn3C3CC3)c2C)cc1CN1C[C@@]2(C)CCCN2c2ncccc2S1(=O)=O` (mixture of isomers) [Example 221, (R/S)-3-(1-Cyclopropyl-4-methyl-1H-benzo[d][1,2,3]triazol-5-yl)-3-(4-methyl-3-(((*R)-7a-methyl-5,5-dioxido-7a,8,9,10-tetrahydropyrido[2,3-f]pyrrolo[2,1-d][1,2,5]thiadiazepin-6(7H)-yl)methyl)phenyl)propanoic Acid], the Kd in assay [1] was found to be 19 nM. Also, in assay [2], the midpoint of the response, the EC50, lay at 580 nM.
The like results for `Cc1c([C@@H](CC(=O)O)c2ccc(Cl)c(CN3CC4CCCCN4c4ncc(F)cc4S3(=O)=O)c2)ccn2c(C(F)(F)F)nnc12` (single isomer, unassigned) [Example 94, (*S)-3-(4-Chloro-3-(((*S)-3-fluoro-5,5-dioxido-7,7a,8,9,10,11-hexahydro-6H-dipyrido[2,1-d:2′,3′-f][1,2,5]thiadiazepin-6-yl)methyl)phenyl)-3-(8-methyl-3-(trifluoromethyl)-[1,2,4]triazolo[4,3-a]pyridine-7-yl)propanoic Acid] were, in that order, under 1 nM and 54.2 nM.
In the case of `Cc1cc2cc([C@@H](CC(=O)O)c3ccc(C)c(CN4C[C@@H]5CCCN5c5ncccc5S4(=O)=O)c3)n(C)c2nn1` (single isomer, unassigned) [Example 438, (*S)-3-(3,7-Dimethyl-7H-pyrrolo[2,3-c]pyridazin-6-yl)-3-(3-(((S)-5,5-dioxido-7a,8,9,10-tetrahydropyrido[2,3-f]pyrrolo[2,1-d][1,2,5]thiadiazepin-6(7H)-yl)methyl)-4-methylphenyl)propanoic Acid], in assay [1], the dissociation constant (Kd) was 234 nM. Further, the concentration giving a half-maximal response (EC50) in assay [2] was over 20000 nM.
On to `Cc1ccc([C@@H](CC(=O)O)c2ccn3c(C(F)(F)F)nnc3c2C)cc1CN1C[C@H]2CCC(F)(F)CN2c2ncccc2S1(=O)=O` (single isomer, unassigned) [Example 456, (*R)-3-(3-(((*R)-10,10-Difluoro-5,5-dioxido-7,7a,8,9,10,11-hexahydro-6H-dipyrido[2,1-d:2′,3′-f][1,2,5]thiadiazepin-6-yl)methyl)-4-methylphenyl)-3-(8-methyl-3-(trifluoromethyl)-[1,2,4]triazolo[4,3-a]pyridin-7-yl)propanoic Acid], for which the Kd in assay [1] is under 1 nM. In addition, the EC50 in assay [2] stood at 414 nM.
On to `Cc1ccc([C@H](CC(=O)O)c2cc(OC(F)F)c3c(c2)nnn3C)cc1CN1C[C@H]2CCCCN2c2ncccc2S1(=O)=O` (single isomer, unassigned) [Example 2, (*S)-3-(7-(Difluoromethoxy)-1-methyl-1H-benzo[d][1,2,3]triazol-5-yl)-3-(3-(((*R)-5,5-dioxido-7,7a,8,9,10,11-hexahydro-6H-dipyrido[2,1-d:2′,3′-f][1,2,5]thiadiazepin-6-yl)methyl)-4-methylphenyl)propanoic Acid], for which the Kd in assay [1] was determined as 0.162 nM. The compound further had an EC50 in assay [2] of 180 nM.
`Cc1ccc([C@H](CC(=O)O)c2ccc3c(nnn3C3CC3)c2C)cc1CN1C[C@H]2CCCCN2c2ncccc2S1(=O)=O` (single isomer, unassigned) [Example 212, (*S)-3-(1-Cyclopropyl-4-methyl-1H-benzo[d][1,2,3]triazol-5-yl)-3-(3-(((*R)-5,5-dioxido-7,7a,8,9,10,11-hexahydro-6H-dipyrido[2,1-d:2′,3′-f][1,2,5]thiadiazepin-6-yl)methyl)-4-methylphenyl)propanoic Acid]: the Kd in assay [1] was under 1 nM. Also, the EC50 in assay [2] worked out at 3.7 nM.
For `Cc1cnc2c(c1)S(=O)(=O)N(Cc1cc([C@@H](c3ccn4c(C(F)(F)F)nnc4c3)C(C)(C)C(=O)O)ccc1C)CC1(CC1)O2` (single isomer, unassigned) [Example 323, (*S)-2,2-Dimethyl-3-(4-methyl-3-((8′-methyl-1′,1′-dioxidospiro[cyclopropane-1,4′-pyrido[2,3-b][1,4,5]oxathiazepin]-2′(3′H)-yl)methyl)phenyl)-3-(3-(trifluoromethyl)-[1,2,4]triazolo[4,3-a]pyridin-7-yl)propanoic Acid] the same measures were 298 nM and 16200 nM.
Turning to `CCn1nnc2c(C)c([C@H](CC(=O)O)c3ccc(C)c(CN4C[C@H]5CCCN5c5ncccc5S4(=O)=O)c3)ccc21` (single isomer, unassigned) [Example 22, (*R)-3-(3-(((R)-5,5-Dioxido-7a,8,9,10-tetrahydropyrido[2,3-f]pyrrolo[2,1-d][1,2,5]thiadiazepin-6(7H)-yl)methyl)-4-methylphenyl)-3-(1-ethyl-4-methyl-1H-benzo[d][1,2,3]triazol-5-yl)propanoic Acid], in assay [1], the Kd came out at 0.081 nM. In assay [2], this compound gave an EC50 of 3.9 nM.
Turning to `Cc1ccc([C@@H](CC(=O)O)c2ccn3c(C(F)(F)F)nnc3c2C)cc1CN1CC2(COC2)Oc2ccccc2S1(=O)=O` (single isomer, unassigned) [Example 288, (*R)-3-(3-((1,1-dioxidospiro[benzo[b][1,4,5]oxathiazepine-4,3′-oxetan]-2(3H)-yl)methyl)-4-methylphenyl)-3-(8-methyl-3-(trifluoromethyl)-[1,2,4]triazolo[4,3-a]pyridin-7-yl)propanoic Acid], in assay [1], the Kd was under 1 nM. The 50% effective concentration (EC50) in assay [2] worked out at 123 nM.
With `Cc1ccc([C@H](c2ccn3c(C(F)(F)F)nnc3c2C)C(C)(C)C(=O)O)cc1CN1CC2(CCOCC2)Oc2nc(OCCN3CCNCC3)ccc2S1(=O)=O` (single isomer, unassigned) [Example 368, (*R)-3-(3-((1′,1′-Dioxido-7′-(2-(piperazin-1-yl)ethoxy)-2,3,5,6-tetrahydrospiro[pyran-4,4′-pyrido[2,3-b][1,4,5]oxathiazepin]-2′(3′H)-yl)methyl)-4-methylphenyl)-2,2-dimethyl-3-(8-methyl-3-(trifluoromethyl)-[1,2,4]triazolo[4,3-a][pyridine-7-yl)propanoic Acid], the Kd in assay [1] was under 1 nM. In addition, the half-maximal effective concentration (EC50) in assay [2] is 256 nM.
`Cc1ccc(C(CC(=O)O)c2ccc3c(nnn3C3CC3)c2C)cc1CN1C[C@H]2CCCN2c2ncccc2S1(=O)=O` (mixture of isomers) [Example 209, (R/S)-3-(1-Cyclopropyl-4-methyl-1H-benzo[d][1,2,3]triazol-5-yl)-3-(3-(((R)-5,5-dioxido-7a,8,9,10-tetrahydropyrido[2,3-f]pyrrolo[2,1-d][1,2,5]thiadiazepin-6(7H)-yl)methyl)-4-methylphenyl)propanoic Acid]: the Kd in assay [1] was under 1 nM. In assay [2], a half-maximal response (EC50) required 8.8 nM.
Turning to `Cc1cnc2c(c1)S(=O)(=O)N(Cc1cc([C@@H](c3cc4cc(C)nnc4n3C)C(C)(C)C(=O)O)ccc1C)CC1(CC1)O2` (single isomer, unassigned) [Example 330, (*S)-3-(3,7-Dimethyl-7H-pyrrolo[2,3-c]pyridazin-6-yl)-2,2-dimethyl-3-(4-methyl-3-((8′-methyl-1′,1′-dioxidospiro[cyclopropane-1,4′-pyrido[2,3-b][1,4,5]oxathiazepin]-2′(3′H)-yl)methyl)phenyl)propanoic Acid], in assay [1], the Kd came out at 1590 nM. The same compound yielded an EC50 in assay [2] of 7520 nM.
The like results for `CCn1nnc2c(C)c([C@@H](CC(=O)O)c3ccc(C)c(CN4C[C@@H]5CCCN5c5ncccc5S4(=O)=O)c3)ccc21` (single isomer, unassigned) [Example 156, (*S)-3-(3-(((S)-5,5-Dioxido-7a,8,9,10-tetrahydropyrido[2,3-f]pyrrolo[2,1-d][1,2,5]thiadiazepin-6(7H)-yl)methyl)-4-methylphenyl)-3-(1-ethyl-4-methyl-1H-benzo[d][1,2,3]triazol-5-yl)propanoic Acid] were, in that order, 2.1 nM and 3.6 nM.

These data come from patent publication US10947252B2, “Inhibitors of KEAP1-Nrf2 protein-protein interaction” (Janssen Pharmaceutica NV, priority 2018, dated 2021).
